These molecules were tested on Veronica (assay: Post-emergence test on weeds). Details: 30 g a.i./ha, 3 weeks after application.
Format: in vivo
Design: key: 0 = no effect, 9 = completely dead (levels by growth control rate)
Text: The criteria for activity levels of plant damage (i.e., growth control rate) are as follows: • Level 9: completely dead; • Level 8: growth control rate is greater than or equal to 90% and less than 100%; • Level 7: growth control rate is greater than or equal to 80% and less than 90%; • Level 6: growth control rate is greater than or equal to 70% and less than 80%; • Level 5: growth control rate is greater than or equal to 50% and less than 70%; • Level 4: growth control rate is greater than or equal to 30% and less than 50%; • Level 3: growth control rate is greater than or equal to 20% and less than 30%; • Level 2: growth control rate is greater than or equal to 10% and less than 20%; • Level 1: growth control rate is less than 10%; • Level 0: no effect.
The above growth control rates are fresh weight control rates.
Monocotyledonous and dicotyledonous weed seeds (Descurainia sophia, Capsella bursa-pastoris, Abutilon theophrasti, Galium spurium, Stellaria media, Lithospermum arvense, Rorippa indica, Alopecurus aequalis, Alopecurus japonicus, Eleusine indica, Beckmannia syzigachne, Sclerochloa dura, Erigeron canadensis, Phleum paniculatum, Veronica, Bromus japonicus, Aegilops tauschii, Phalaris arundinacea, Amaranthus retroflexus, Chenopodium, Commelina communis, Cichorium endivia, Convolvulus arvensis, Cirsium arvense, Solanum nigrum, Acalypha australis, Digitaria sanguinalis, Echinochloa crusgalli, Setaria viridis, Setaria pumila, Leptochloa chinensis, Monochoria vaginalis, Sagittaria trifolia, Schoenoplectiella juncoides, Cyperus rotundus, Cyperus iria, Cyperus difformis, Fimbristylis, Portulaca oleracea, Xanthium sibiricum, Ipomoea nil, Eschenbachia japonica, etc.) and major crop seeds (wheat, maize, paddy rice, soybean, cotton, oilseed rape, millet, sorghum, potato, sesame, castor plant, Chinese cabbage, radish, etc.) were placed in plastic pots filled with soil and then covered with 0.5-2 cm of soil to allow them to grow in a favorable greenhouse environment. Two weeks after sowing, the test plants were treated at the stage of 2-3 leaves. The test compounds of the present invention were individually dissolved with acetone, then added with Tween® 80, with 1.5 L/ha of methyl oleate emulsifiable concentrate as a synergist, diluted into solution of a certain concentration using a certain amount of water, and sprayed to plants using a spray tower. After drug application, the experimental results on weeds were collected after 3 weeks of cultivation in a greenhouse. The compounds were applied at 120, 60, 30, and 15 g a.i./ha in triplicate, and the results were averaged.
`COc1c(N)nc(-c2ccc(C(F)(F)F)c(OC)c2F)nc1C(=O)OCC(OC)OC` [Compound 76] was tested, and the “activity level of plant damage (growth control rate), Veronica” value (from here on “activity level of plant damage”) was 9. In the case of `CCOC(=O)COC(=O)c1nc(-c2ccc(C(F)(F)F)c(OC)c2F)nc(N)c1OC` [Compound 81], the “activity level of plant damage” value is reported as 9. With `COc1c(N)nc(-c2ccc(Br)c(OC)c2F)nc1C(=O)OCC#N` [Compound 209] the “activity level of plant damage” value was 9. `CCOCCOC(=O)c1nc(-c2ccc(C(F)(F)F)c(OC)c2F)nc(N)c1OC` [Compound 21] was tested, and the “activity level of plant damage” value was 9. With `CCOC(=O)OC(C)OC(=O)c1nc(-c2ccc(C(F)(F)F)c(OC)c2F)nc(N)c1OC` (stereo not shown) [Compound 93] the “activity level of plant damage” value was 9. For `CCSC(=O)c1nc(-c2ccc(Br)c(OC)c2F)nc(N)c1OC` [Compound 222], the “activity level of plant damage” value was 9. For `COc1c(N)nc(-c2ccc(C(F)(F)F)c(OC)c2F)nc1C(=O)OCC(F)F` [Compound 61], the “activity level of plant damage” value was 9. In the case of `COc1c(N)nc(-c2ccc(C(F)(F)F)c(OC)c2F)nc1C(=O)ON=C(C)C(C)(C)C` [Compound 192], the “activity level of plant damage” value is reported as 9. In the case of `COc1c(N)nc(-c2ccc(C(F)(F)F)c(OC)c2F)nc1C(=O)OCC1CC1` [Compound 117], the “activity level of plant damage” value is reported as 9. `COc1c(N)nc(-c2ccc(C(F)(F)F)c(OC)c2F)nc1C(=O)OCC1CCCO1` (stereo not shown) [Compound 121] was tested, and the “activity level of plant damage” value was 9. `COc1c(N)nc(-c2ccc(C(F)(F)F)c(OC)c2F)nc1C(=O)OCCBr` [Compound 60] was tested, and the “activity level of plant damage” value was 9. `COc1c(N)nc(-c2ccc(Br)c(OC)c2F)nc1C(=O)OCc1ccccc1` [Compound 219] was tested, and the “activity level of plant damage” value was 9. In the case of `COc1cc(-c2nc(N)c(OC)c(C(=O)OCc3cccnc3)n2)ccc1C(F)(F)F` [Compound 151], the “activity level of plant damage” value is reported as 9. For `COc1c(N)nc(-c2ccc(C(F)(F)F)c(OC)c2F)nc1C(=O)O` [Compound 1], the “activity level of plant damage” value was 9. For `COc1cc(-c2nc(N)c(OC)c(C(=O)OCc3ccncc3)n2)ccc1C(F)(F)F` [Compound 152], the “activity level of plant damage” value was 9. `COC(=O)c1nc(-c2ccc(C(F)(F)F)c(OC(F)F)c2F)nc(N)c1OC` [Compound 247] was tested, and the “activity level of plant damage” value was 9. `COc1c(N)nc(-c2ccc(C(F)(F)F)c(OC)c2F)nc1C(=O)OC1CCCC1` [Compound 119] was tested, and the “activity level of plant damage” value was 9. For `COc1c(N)nc(-c2ccc(C(F)(F)F)c(OC)c2F)nc1C(=O)OCC(C)F` (stereo not shown) [Compound 191], the “activity level of plant damage” value was 9. In the case of `CCCOC(=O)c1nc(-c2ccc(Br)c(OC)c2F)nc(N)c1OC` [Compound 203], the “activity level of plant damage” value is reported as 9. In the case of `COC(=O)c1nc(-c2ccc(Br)c(OC)c2F)nc(N)c1OC` [Compound 201], the “activity level of plant damage” value is reported as 9. With `COc1c(N)nc(-c2ccc(C(F)(F)F)c(OC)c2F)nc1C(=O)OCc1ccccc1` [Compound 130] the “activity level of plant damage” value was 9. `COc1cc(-c2nc(N)c(OC)c(C(=O)SC)n2)ccc1C(F)(F)F` [Compound 155] was tested, and the “activity level of plant damage” value was 9. For `COCCOCCOC(=O)c1nc(-c2ccc(C(F)(F)F)c(OC)c2F)nc(N)c1OC` [Compound 23], the “activity level of plant damage” value was 9. For `COc1c(N)nc(-c2ccc(C(F)(F)F)c(OC)c2F)nc1C(=O)OCc1ccccc1F` [Compound 133], the “activity level of plant damage” value was 9. `COc1c(N)nc(-c2ccc(Br)c(OC)c2F)nc1C(=O)ON=C(C)C` [Compound 210] was tested, and the “activity level of plant damage” value was 9. For `COCCSC(=O)c1nc(-c2ccc(C(F)(F)F)c(OC)c2F)nc(N)c1OC` [Compound 190], the “activity level of plant damage” value was 9. With `COc1c(N)nc(-c2ccc(C(F)(F)F)c(OC)c2F)nc1C(=O)OCC#N` [Compound 103] the “activity level of plant damage” value was 9. `COc1cc(-c2nc(N)c(OC)c(C(=O)OCc3ccccn3)n2)ccc1C(F)(F)F` [Compound 150] was tested, and the “activity level of plant damage” value was 9.

Source: US20260198497A1, “A BENZENE RING-SUBSTITUTED PYRIMIDINECARBOXYLIC ACID COMPOUND, PREPARATION METHOD THEREFOR, HERBICIDAL COMPOSITION AND APPLICATION THEREOF” (QINGDAO KINGAGROOT CHEMICAL COMPOUND CO., LTD., priority 2023, published 2026)
